Laboratory results reported in article PMC4481117 (Molecular Pain, 2015).

Experiments:
[1] = test system: U937 monocytic cells; assay: Chemotaxis migration assay of U937 cells to Dyn A agarose gel; format: cell-based, human; conditions: 10 μM Dyn A in agarose
Experimental: Fig. 7 Chemotactic response of U937 cells to Dyn A. a, schematic representation of the experimental format. U937 cells (5x10^4) were placed in the center of the coverslip between two agar gels, one containing Dyn A and control gel without Dyn A. After 2 h at 37 °C, a series of photographs was taken in the direction of migration at 1-mm intervals to count the number of migrating cells. b , representative images after 2 h of migration show the cells within the starting point (marked with a cross; right panels) and at the border of the Dyn A-containing agar drop (left panels). […] Two bottom panels show the experimental condition with no Dyn A gradient. c, quantification of U937 cells migrated from the initial point after 2 h based on the results shown in A (right panel). Migration of control untreated U937 cells that completely migrated from the initial point of cell placement was assigned a value of 100 %. In contrast, there was no cell migration without a Dyn A gradient (0 %). […] A representative experiment is shown. d, distribution of U937 cells between two gels: Dyn A-containing (on the left) and without Dyn A (on the right). “0” on abscissa corresponds to the initial point where cells were loaded and the numbers show the distance that cells migrated in both directions from the starting point. All cells in each of 10 consecutive fields towards the Dyn A-containing and empty gels were counted and plotted as a distance from the starting point
Chemotaxis assays using U937 monocytic cells were performed on 22 × 22 mm cover slips. 1 % agarose (Life Technologies, Carlsbad, CA) was dissolved in HBSS by heating. After cooling, the agarose solution was mixed with Dyn A to obtain a final concentration of 10 μM. A 10 μl drop of warm agarose solution containing Dyn A was placed at one corner of the cover glass at ~1.5 mm from the edge. A control agarose drop was placed diagonally at the opposite corner of the cover glass. Agarose was allowed to solidify for 5 min, and the cover glasses were placed into wells of the 6-well plate filled with 5 ml of RPMI 1640 + 10 % FBS. A 10-μl aliquot of U937 cells (5x10^4) was loaded in the center of the cover glass and the plate was incubated for 2 h at 37 °C in a humidified atmosphere containing 5 % CO2. In this experimental format, the cells sediment approximately 5 min after loading, forming an ~4 mm circle, and begin to migrate towards the Dyn A-containing agarose drop. […] The photographs were taken at 1-mm intervals in the direction of cell migration towards the dynorphin-containing or control agarose drops without dynorphin A. The number of cells at the starting point and in each of 10 consecutive fields towards the dynorphin-containing and empty gels were counted and plotted as a distance from the starting point.

[2] = test system: IC-21 macrophages; assay: Phagocytosis of Dyn A-coated latex beads by IC-21 macrophages; format: cell-based, murine; conditions: 1 μm beads preincubated with 50 μg/ml Dyn A, 30 min at 37 °C; vs control beads
Experimental: Fig. 8 Effect of Dyn A on phagocytosis of latex beads. a, Fluorescent latex beads (1x10^9/ml) were preincubated with Dyn A (50 μg/ml) for 40 min at 37 °C. Soluble peptide was removed from the beads by high-speed centrifugation. Peptide-coated beads were incubated with adherent IC-21 macrophages for 30 min at 37 °C. Nonphagocytosed beads were removed from cells by washing with PBS. […] Rat IgG2b was used as an isotype control for anti-αM mAb M1/70. Phagocytosis was quantified for five random fields per well using a 20x objective. Phagocytosis of Dyn A-treated beads was assigned as 100 %.
A suspension of fluorescent […] latex beads (1x10^9/ml) (FluoSpheres sulfate microspheres, Life Technologies, Carlsbad, CA) was incubated with 50 μg/ml of Dyn A for 40 min at 37 °C, then unbound peptide was removed by centrifugation. IC-21 murine macrophages (5 × 10^5/ml) were adhered on the cover glass for 30 min and 3 × 10^6 of peptide-coated beads were added to adherent IC-21 cells. After incubating for 30 minutes at 37 °C, nonphagocytosed beads were separated from macrophages by washing with 3x1 ml PBS and phagocytosed beads were counted in the presence of trypan blue. […] The ratio of beads per macrophage was quantified by taking photographs of five fields for each well using a Leica DM4000 B microscope (Leica Microsystems, Buffalo Grove, IL) with a 20 × objective.

[3] = test system: GST; assay: Solid-phase binding of GST (control); conditions: immobilized Dyn A; % of the αMI-domains; not shown
Experimental: Microtiter plates were coated with different concentrations of the fibrinogen D100 fragment or Dyn A overnight at 4 °C and post-coated with 3 % BSA for 1 h. The GST-αMI-domains in 20 mM Tris–HCl, pH 7.4, 100 mM NaCl, 1 mM MgCl2, 1 mM CaCl2, 0.05 % Tween 20, and 5 % glycerol were added to the wells and incubated for 1.5 h at 22 °C. After washing, the plates were incubated with an anti-GST mAb at a 1:5000 dilution for 1 h at 22 °C. After washing, goat anti-mouse IgG conjugated to alkaline phosphatase was added for 1 h and the binding of the αMI-domains was detected by reaction with p-nitrophenyl phosphate measuring the absorbance at 405 nm. Background binding to BSA was subtracted.

For `CC[C@H](C)[C@H](NC(=O)[C@H](CCCNC(=N)N)NC(=O)[C@H](CCCNC(=N)N)NC(=O)[C@H](CC(C)C)NC(=O)[C@H](Cc1ccccc1)NC(=O)CNC(=O)CNC(=O)[C@@H](N)Cc1ccc(O)cc1)C(=O)N[C@@H](CCCNC(=N)N)C(=O)N1CCC[C@H]1C(=O)N[C@@H](CCCCN)C(=O)N[C@@H](CC(C)C)C(=O)N[C@@H](CCCCN)C(=O)N[C@@H](Cc1c[nH]c2ccccc12)C(=O)N[C@@H](CC(=O)O)C(=O)N[C@@H](CC(N)=O)C(=O)N[C@@H](CCC(N)=O)C(=O)O` [Dyn A], the “Distance travelled by majority of untreated cells towards Dyn A” value ([1]; 2 h, no inhibitor) was ~ 8 mm, the “Chemotaxis of U937 cells (in words)” value ([1]; 2 h at 37 °C) was “efficiently migrated along the gradient of Dyn A” and the “Augmentation of bead uptake” value [2] was ~ 10 -fold. The “Binding of GST to Dyn A relative to the αMI-domains” value [3] was “less than 5%”.
